Results from ChEMBL document CHEMBL3301361, “Experimental in vitro DMPK and physicochemical data on a set of publicly disclosed compounds”.

Key:
physchem = conditions: octan-1-ol/water
in vitro [1] = conditions: hepatocytes
in vitro [2] = conditions: human

| SMILES | logD (physchem; pH 7.4, LogD7.4) | hepatocyte CLint (in vitro [1]) [µL/min/1e6 cells] | microsomal CLint (in vitro [2]; liver microsomes) [µL/min/mg] | microsomal CLint (in vitro [2]; microsomes) [µL/min/mg] | logD (physchem; pH 7.4) |
| --- | --- | --- | --- | --- | --- |
| CC(C)c1ccc(NC(=O)Cn2cnc3c2c(=O)n(C)c(=O)n3C)cc1 |  | 16.6 |  | 18.2 |  |
| O=C1NC(=O)/C(=C/c2ccc3c(c2)OC(F)(F)O3)S1 | 2.8 | 4.17 | 19.5 |  |  |
| CNS(=O)(=O)Cc1ccc2[nH]cc(CCN(C)C)c2c1 | -0.96 | 8 | < 3 |  |  |
| c1ccc(Nc2[nH]nnc2-c2ccccc2)cc1 | 3.37 | 111 | 119 |  |  |
| Cc1ccc(-c2nnc(SCC(=O)N3CCN(c4ccccc4)CC3)o2)cc1 |  | > 150 |  | > 150 |  |
| Cc1ccccc1NC(=O)CCS(=O)(=O)c1ccc(Br)s1 | 2.7 | > 150 | 46.8 |  |  |
| O=C(C1CCN(c2nnc(-n3cccc3)s2)CC1)N1CCc2ccccc2C1 |  | 46.8 | 83.2 |  | 3.7 |
| O=c1[nH]c2c(O)ccc([C@@H](O)CNCCSCCCOCCc3ccccc3)c2s1 | 2.54 | > 150 |  | 75 |  |
| CCOc1ccc(CCNCCCSCCNC[C@H](O)c2ccc(O)c3[nH]c(=O)sc23)cc1 | 0.41 | 8 | 75 |  |  |
| CN(CC(=O)N(Cc1ccc(C2CCCCC2)cc1)c1ccc(C(=O)O)c(O)c1)S(=O)(=O)c1c(F)c(F)c(F)c(F)c1F |  | 74.1 |  | 129 |  |
| Cc1ccc(NC(=O)c2cccc(N3CCOCC3)c2)cc1NC(=O)c1ccc(OCc2cscn2)cc1 |  | 20 |  | 23 |  |
| CCC(CC)NC(=O)c1cnn(C)c1NS(=O)(=O)c1ccc(C)cc1 | 0.36 | 27 | 13 |  |  |
| CCC(CC)NC(=O)c1cnn(-c2ccccc2)c1NS(=O)(=O)c1ccc(-c2cnco2)cc1 | 0.8 | 52 | 27 |  |  |
| Cc1nn(-c2ccc(F)cc2)c(NS(=O)(=O)c2cccnc2)c1C(=O)N[C@@H](C)C(C)(C)C | 0.4 | 12 | < 3 |  |  |
| O=c1[nH]c2c(O)ccc([C@@H](O)CNCCc3cccc(CNCc4ccccc4Cl)c3)c2s1 | 1.85 | 60 | 47 |  |  |
| O=c1[nH]c2c(O)ccc([C@@H](O)CNCCOc3cccc(CNCCc4ccccc4F)c3)c2s1 | 1.86 | 23 |  | 14 |  |
| CC(=O)c1ncccc1NC(=O)[C@H]1CC[C@H](N2C(=O)[C@@H]3[C@@H]4CC[C@@H](C4)[C@@H]3C2=O)CC1 | 3.01 | > 150 | 16.6 |  |  |
| O=c1c2c3n(c(=O)cc2[nH]n1-c1ccccc1Cl)CCCN(Cc1ccccc1)C3 |  | < 3 |  | 32.4 |  |

| SMILES | logD (physchem; pH 7.4, LogD7.4) | hepatocyte CLint (in vitro [1]) [µL/min/1e6 cells] | microsomal CLint (in vitro [2]; liver microsomes) [µL/min/mg] | microsomal CLint (in vitro [2]; microsomes) [µL/min/mg] | logD (physchem; pH 7.4) |
| --- | --- | --- | --- | --- | --- |
| CNC(=O)c1nc(-c2ccc(Cl)c(S(=O)(=O)Nc3cccc(F)c3F)c2)cnc1N | 2.8 | 19.9 | 51.3 |  |  |
| Nc1ncnc2c1ncn2[C@@H]1O[C@H](CSCCCNC(=O)Nc2ccccc2)[C@@H](O)[C@H]1O | 1.9 | 28.2 |  | 9.77 |  |
| COc1ccc(C#Cc2ccc([C@@H]3[C@H](CO)N4CCCCN(C(=O)Nc5cccc(F)c5)C[C@@H]34)cc2)cc1 |  | 18.2 |  | 50.1 |  |
| COc1ccc(CC(=O)NC(NC(=NC#N)Nc2ccccc2C)C(C)(C)C)cc1OC (stereo not drawn) | 2.48 | 26 | > 150 |  |  |
| O=C(O)COc1ccc(C(=O)c2cccs2)c(Cl)c1Cl | -0.84 | 61 |  | 82 |  |
| O=C(O)[C@H](Cc1ccccc1)N1CCC(CN2CCC(Oc3ccc(CO)c(Cl)c3)CC2)CC1 | 0.8 | 28 | < 3 |  |  |
| COc1ccc(Cc2c(N)n[nH]c2N)cc1 | 0.2 | 3.63 | 5.37 |  |  |
| COc1nc(N)nc2c1ncn2[C@@H]1O[C@H](CO)[C@@H](O)[C@H]1O |  | 10.5 |  | 42.7 | -0.58 |
| CCOC(=O)c1c(-c2ccccc2)nc2ccc(C)cn12 |  | 126 |  | > 150 |  |
| N#Cc1cccc(NCC(=O)Nc2c(Cl)ccc3nc(N4CC[C@@H](O)C4)ccc23)c1 | 2.39 | 8 |  | 30 |  |
| O=C(NCC12CC3CC(CC(C3)C1)C2)c1ccnc(NCC2CCNCC2)c1Cl | 0.6 | 4 |  | 68 |  |
| Cn1c(=O)c(-c2c(Cl)cccc2Cl)cc2cnc(Nc3ccc(F)cc3)nc21 |  | 6.17 |  | 132 |  |
| CCn1c(SCC(=O)Nc2cccc(C)c2)nnc1-c1ccccc1 |  | > 150 |  | > 150 |  |
| O=CN(O)CCCP(=O)(O)O [FOSMIDOMYCIN] |  | < 3 | 3.02 |  |  |
| CC(C(=O)O)c1ccc(C(=O)c2cccs2)cc1 (stereo not drawn) [SUPROFEN] |  | 16 |  | < 3 |  |
| C[C@@H](O)[C@H]1C(=O)N2C(C(=O)OCOC(=O)C(C)(C)C)=C(SC3CN(C4=NCCS4)C3)[C@H](C)[C@H]12 [TEBIPENEM PIVOXIL] |  | > 150 | > 150 |  |  |
| C[C@@H](O)[C@H]1C(=O)N2C(C(=O)O)=C(SC3CN(C4=NCCS4)C3)[C@H](C)[C@H]12 [TEBIPENEM] |  | 4.79 | 23.4 |  |  |
| CC1Sc2c(C(=O)O)c(=O)c3cc(F)c(N4CCNCC4)cc3n21 (stereo not drawn) [ULIFLOXACIN] |  | < 3 | 13.8 |  |  |

The remaining lines, values ahead:

| logD (physchem; pH 7.4, LogD7.4) | hepatocyte CLint (in vitro [1]) [µL/min/1e6 cells] | microsomal CLint (in vitro [2]; liver microsomes) [µL/min/mg] | microsomal CLint (in vitro [2]; microsomes) [µL/min/mg] | logD (physchem; pH 7.4) | SMILES |
| --- | --- | --- | --- | --- | --- |
| 0.3 | < 3 | < 3 |  |  | CCOc1nc2cccc(C(=O)O)c2n1Cc1ccc(-c2ccccc2-c2nnn[nH]2)cc1 |
| 3.3 | 5.5 | 33.1 |  |  | O=C(Nc1ncc(F)s1)C(CC1CCOCC1)c1ccc(S(=O)(=O)C2CC2)cc1 (stereo not drawn) |
| 0.2 | < 3 | < 3 |  |  | Cc1c2c(=O)n(-c3ccccc3Cl)[nH]c2cc(=O)n1Cc1ccccn1 |
| 3.78 | 66.1 | 66.1 |  |  | CCc1c(C)nc(SCC(=O)Nc2nc(-c3ccc(OC)cc3)cs2)nc1O |
| 3.65 | > 150 | 99 |  |  | c1csc(Cn2nnnc2CN2CCN(c3nc4ccccc4s3)CC2)c1 |
|  | > 150 |  | > 150 |  | CCCCn1c(SCC(=O)Nc2cc(C)on2)nnc1-c1ccco1 |
|  | 148 |  | > 150 | 3.8 | CCOC(=O)c1c(-c2ccccc2)nc2cc(C)ccn12 |
| 3.2 | > 150 |  | 117 |  | O=C(c1csc2c1CCCC2)N1CCCCC1 |
| 2.5 | > 150 |  | > 150 |  | COc1ccc(CNC(=O)CSc2nc3cccnc3s2)cc1 |
| 0.16 | 64.3 | > 150 |  |  | Cc1nc2ncnn2c(O)c1CCOC(=O)c1c(F)cccc1F |
| 2.47 | 97.7 |  | 4.9 |  | O=C(O)CCc1ccc(OCc2cccc(Oc3ccccc3)c2)cc1 |
| 3.5 | 13.8 |  | 64.6 |  | COc1ccc(C(=O)NCc2cn(-c3cc(C)nc4ccc(OC)cc34)nn2)cc1 |
| 0.65 | 56 | 72 |  |  | CCC(CC)NC(=O)c1cnn(-c2ccccc2Cl)c1NS(=O)(=O)c1ccc(C)cc1 |
| 1.99 | 29 |  | 27 |  | O=c1[nH]c2c(O)ccc([C@@H](O)CNCCc3cccc(CN4CCC(c5ccccc5)CC4)c3)c2s1 |
|  | 123 |  | 39.8 |  | Nc1ccc(-c2ccccc2Cl)cc1 |
| 3.9 | > 150 |  | 138 |  | COc1ccc2nc(C)cc(OCC(=O)Nc3ccccc3OC)c2c1 |
|  | 51.3 |  | 126 |  | Cc1cc(OCC(=O)NCc2ccccc2)c2cc(Br)ccc2n1 |
| 3.2 | 120 | > 150 |  |  | COc1ccc2nc(C)cc(OCC(=O)NCc3ccccc3)c2c1 |
|  | > 150 |  | 123 |  | Cc1cc(OCC(=O)Nc2ccccc2)c2cc(Br)ccc2n1 |
| 2.18 | 27.5 |  | 7.24 |  | COc1cc(Nc2nc3c(cc2F)ncn3[C@@H](CO)c2ccc(F)cn2)n[nH]1 |
| 4.2 | 17.4 | 15.1 |  |  | CCn1c(C)c(C(=O)O)c(-c2cccc(N3CCN(c4ccc(NS(=O)(=O)c5ccc(N[C@H](CCN6CCC(O)CC6)CSc6ccccc6)c(S(=O)(=O)C(F)(F)F)c5)cc4)CC3)c2)c1-c1ccc(Cl)cc1 |
| 2.8 | 57.5 | > 150 |  |  | Cc1cc2cc(C)c3nnc(SCC(=O)N4CCN(C(=O)c5ccco5)CC4)n3c2cc1C |
| 2.21 | 88 |  | 29 |  | Oc1nc2c(O)ccc(CCNCCCCCCOCCc3ccccc3)c2s1 |
| 2 | > 150 | 120 |  |  | CCN(CC)c1ccc2cc(C(C)=O)c(=O)oc2c1 |
| 2.46 | > 150 | 103 |  |  | CC1(C)[C@@H]2CC[C@@]1(CS(=O)(=O)N1CCN(c3ccc(C#N)cn3)CC1)C(=O)C2 |
| 3.2 | 12.6 | 27.5 |  |  | COc1cc2c(Nc3ccc(F)c(Cl)c3)c(C(N)=O)cnc2cc1OCCN(C)CCO |
| 3.83 | > 150 | 10 |  |  | O=C(Nc1cccc(CCO)c1)c1cc2cc(Cl)ccc2[nH]1 |
| 3.08 | 13 | 15 |  |  | O=C(NCC12CC3CC(CC(C3)C1)C2)c1c(Cl)ccc2nc(N3CCC[C@H](NCCc4nnn[nH]4)C3)ccc12 |
|  | 12.9 |  | 25.1 |  | Cc1cnc(Nc2ccc(F)cc2Cl)nc1-c1c[nH]c(C(=O)N[C@H](CO)c2cccc(Cl)c2)c1 |
|  | 50.1 | > 150 |  |  | Cc1ccc2c(NC[C@](O)(CC(C)(C)c3cc(F)cc4c3OCC4)C(F)(F)F)cccc2n1 [MAPRACORAT] |
